Results on two compounds are retold here after patent US20110251251A1, “POLYMORPH II OF AN ANTIFUNGAL COMPOUND” (FERRER INTERNACIONAL, S.A, priority 2008, published 2011).

Common to all, as to format: physicochemical
Series [1] can be described thus: Determination of apparent density and compacted density (Stampf STAV 2003 volumeter). The following applies: for Compacted density: weight/final volume after 2500 strokes; for Apparent density: weight/initial volume. The protocol:
The determination of apparent and compacted densities was carried out with a Stampf STAV 2003 volumeter equipped with a 100-mL glass volumetric flask.
• (i) The flask was filled with a volume between 50 and 100 mL of test sample. • (ii) The volume occupied before the test (mL) was recorded. • (iii) 2500 strokes were performed with the volumeter. • (iv) The volume occupied after the test (mL) was recorded. • (v) The amount of analyzed sample (g) was weighed.
• (i) Apparent density (g/mL)=weight/initial volume • (ii) Compacted density (g/mL)=weight/final volume

Series [2] is described as follows: Stability of polymorph II (humidity, temperature, polymorphic transition). Here is the method: The start of endothermic peak temperature occurred at 437.6° K, but the first recorded weight loss began at 449° K from DTA analysis. Polymorph II placed in a furnace at 423° K started decomposition after 2 hours.
Series [3] is described as follows: DTA / thermogravimetric analysis (weight loss). The protocol:
The necessary amounts were carefully weighed for completing ¾ parts of the 70-μl Al2O3 crucible provided with a perforated lid that was hermetically sealed. Then, the crucible was placed into the furnace and the experiment started. The samples were heated from […] at a rate of 5° C./min under a N2 stream, the flow rate being 80 mL/min. Mass loss rate was calculated in relation to baseline by horizontal tangent plot. […] The start of endothermic peak temperature occurred at 437.6° K, but the first recorded weight loss began at 449° K from DTA analysis. Polymorph II placed in a furnace at 423° K started decomposition after 2 hours.

SMILES strings stand for the structures.

Turning to `Clc1ccc([C@H](Cn2ccnc2)OCc2csc3c(Cl)cccc23)c(Cl)c1` [Polymorph I, arasertaconazole mononitrate], the Compacted density in series [1] (listed as Polymorph 1) and in series [1] (listed as polymorph I) was 1.08 g/mL each time. Further, the Apparent density in series [1] (listed as Polymorph 1) and in series [1] (listed as polymorph I) was 0.78 g/mL in each case.
For the compound `Clc1ccc([C@H](Cn2ccnc2)OCc2csc3c(Cl)cccc23)c(Cl)c1` [Polymorph II, arasertaconazole mononitrate], in series [2] (1-month test at ambient temperature or humidity), the “Stability in 1-month test” value is “remained stable”. In addition, the “Stability after 1 day” value in series [2] (1 day at 25° C./80 RH) is “remained stable”. Also, in series [2] (during 1-month test), the “Transition from II to I” value is given as “No transition from II to I was observed”. In addition, in series [2] (high temperatures (higher than 80° C.)), the “Stability at high temperature compared with polymorph I” value is reported as “more stable at high temperature”. Also, in series [2] (humidity), the Stability against humidity entry is listed as “stable”. For the same compound, in series [2] (placed in a furnace at 423° K), the “Time to start of decomposition” value is 2 h. In series [2] (temperature below 423° K), the Stability at temperature result is reported as “stable”. The Compacted density in series [1] and in series [1] (listed as polymorph II) was 0.53 g/mL each time. Also, the Apparent density in series [1] and in series [1] (listed as polymorph II) was 0.39 g/mL throughout. Besides, the “Temperature at which first recorded weight loss began” value in series [3] was determined as 449 ° K.
